For one assay, the system named is cornified envelope (CE). The assay is described as follows: Production of cornified envelope (CE) in NHEK cells. It is filed as cell-based, human. The conditions noted are these: 5 days, control 0.63 ± 0.07. As to the method:
The following experiment was conducted to examine the effect of ascorbic acid 2-glucoside on the production of CE in a keratinous layer. As a model for typical normal human epidermal cells, normal human epidermal keratinocytes from neonatal foreskin, commercialized by Kurabo Industries Ltd., Osaka, Japan, and abbreviated as “NHEK cells”, hereinafter, were suspended in EpiLife medium (pH 7.4), commercialized by Invitrogen Corporation, Calif., USA, and called “EpiLife medium”, hereinafter, inoculated to 12-well microplates at a cell density of 1×10^5 cells/well, and cultured under the conditions of 37° C. and 5% v/v CO2 overnight. Thereafter, “AA2G”, a product name of a particulate composition containing anhydrous crystalline ascorbic acid 2-glucoside, commercialized by Hayashibara Co., Ltd., Okayama, Japan, was added to each well to give a final concentration of 0.5 or 1 mM, or, as a positive control, CaCl2 was added to each well to give a final concentration of 1 mM; and the cells in each well were cultured at 37° C. for five days while replacing the medium in each well with a fresh preparation of EpiLife medium having the above-identified concentration of ascorbic acid 2-glucoside or CaCl2. Assay for intracellular CE content was carried out in accordance with Tatsuya Hasegawa et al., “Lipids”, Vol. 46, pp. 529 to 535, 2011. After completion of the culture, the culture supernatant in each well was immediately removed, followed by detaching and extracting the cells adhered to the wall of each well by means of pipetting with phosphate buffered saline (PBS, pH 7.4) containing 2% w/v sodium dodecyl sulfate (SDS), and collecting insoluble fractions by centrifugation at 15,000 rpm for 10 min. […] The measured values were regarded as CE production levels. […]

The subject of the next assay is occludin. The assay is described as follows: TJ-related protein occludin in NHEK cells (Western). It is filed as cell-based, human. The conditions noted are these: 3 days, CaCl2 positive control = 100%, no addition 63%. The procedure:
The following experiment was conducted to examine the effect of ascorbic acid 2-glucoside on the production of TJ-related proteins that constitute cell-cell adhesion structures by focusing on occludin and ZO-1 that are focused on as TJ-related proteins known to exist in a granular layer of epidermis: As a model for typical normal human epidermal cells, NHEK cells were suspended in EpiLife medium (pH 7.4); inoculated to 12-well microplates at a cell density of 1×10^5 cells/well; cultured overnight under the conditions of 37° C. and 5% v/v CO2; and further cultured for three days under the conditions of 37° C. and 5% v/v CO2 after adding either CaCl2 as a positive control to each well to give a final concentration of 0.5 mM, or “AA2G”, a product name of a particulate composition containing anhydrous crystalline ascorbic acid 2-glucoside, commercialized by Hayashibara Co., Ltd., Okayama, Japan, to give a final concentration of 0.5 or 1 mM. […] A sample of 20 μg protein for each lane per each cell extract in respective wells was applied to sodium dodecyl sulfate polyacrylamide gel electrophoresis (SDS-PAGE) with 10% w/v SDS containing DTT, followed by assaying the concentration of occludin or ZO-1 in each cell extract with “Luminate Western HRP Substrates”, a product name of a premixed, ready-to-use chemiluminescent detection reagent using an internal standard “α-Tubulin”, commercialized by Merck KGaA, Darmstadt, Germany, wherein there were used “F-11”, a product name of an anti-occludin mouse monoclonal antibody, commercialized by Santa Cruz Biotechnology, Inc., Texas, USA, or “ZO1-1A12”, a product name of a ZO-1 mouse monoclonal antibody, commercialized by Invitrogen Corporation, Calif., USA, was used as a first antibody; and “PO447”, a product name of a horseradish peroxidase (HRPO) labeled anti-mouse IgG, commercialized by DAKO Japan Inc., Tokyo, Japan, or “PO448”, a product name of an HRPO-labeled anti-rabbit IgG, commercialized by DAKO Japan Inc., Tokyo, Japan, as a secondary antibody. […]

Each structure is given as a SMILES string.

Take `O=C1O[C@H]([C@@H](O)CO)C(O)=C1O[C@H]1O[C@H](CO)[C@@H](O)[C@H](O)[C@H]1O` [ascorbic acid 2-glucoside, 2-O-α-D-glucosyl-L-ascorbic acid]: the figures for the “OD310nm Value (CE Production level)” value in the assay on cornified envelope (CE) (0.5 mM) and in the assay with cornified envelope (CE) (1 mM) were 0.78 ± 0.05 and 1.04 ± 0.11, respectively. Moreover, the “Occludin concentration in cell extract” value is given as 78% in the assay on occludin (0.5 mM) and 85% in the assay on occludin (1 mM).
